# Test results as given in ChEMBL document CHEMBL3046164, “A facile synthesis of some 3-cyano-1,4,6-trisubstituted-2(1H)-pyridinones and their biological evaluation as anticancer agents” (2011).
# Key:
# Assay type in all cases: functional
# [1] = test system: MOLT-4; assay: Growth inhibition of Homo sapiens (human) MOLT4 cells at 10 uM after 48 hr by SRB assay; settings: MOLT-4, 48 h, read-out: GI
# [2] = test system: RPMI-8226; assay: Growth inhibition of Homo sapiens (human) RPMI8226 cells at 10 uM after 48 hr by SRB assay; settings: RPMI-8226, 48 h, read-out: GI
# [3] = test system: HL-60(TB); assay: Growth inhibition of Homo sapiens (human) HL-60(TB) cells at 10 uM after 48 hr by SRB assay; settings: HL-60, 48 h, read-out: GI
# [4] = test system: CCRF-CEM; assay: Growth inhibition of Homo sapiens (human) CCRF-CEM cells at 10 uM after 48 hr by SRB assay; settings: read-out: GI
# [5] = test system: HOP-92; assay: Growth inhibition of Homo sapiens (human) HOP92 cells at 10 uM after 48 hr by SRB assay; settings: HOP-92, 48 h, read-out: GI
# [6] = test system: K562; assay: Growth inhibition of Homo sapiens (human) K562 cells at 10 uM after 48 hr by SRB assay; settings: K562, 48 h, read-out: GI
# [7] = test system: NCI-H23; assay: Growth inhibition of Homo sapiens (human) NCI-H23 cells at 10 uM after 48 hr by SRB assay; settings: NCI-H23, 48 h, read-out: GI
# [8] = test system: UO-31; assay: Cytotoxicity against Homo sapiens (human) UO31 cells after 48 hr by SRB assay; settings: UO-31, 48 h
# [9] = test system: MDA-MB-231; assay: Cytotoxicity against Homo sapiens (human) MDA-MB-231 cells after 48 hr by SRB assay; settings: MDA-MB-231, 48 h
# [10] = test system: SNB-75; assay: Cytotoxicity against Homo sapiens (human) SNB75 cells after 48 hr by SRB assay; settings: SNB-75, 48 h
# [11] = test system: SR; assay: Cytotoxicity against Homo sapiens (human) SR cells after 48 hr by SRB assay
# [12] = test system: SF-539; assay: Cytotoxicity against Homo sapiens (human) SF539 cells after 48 hr by SRB assay; settings: SF-539, 48 h
# [13] = test system: OVCAR-3; assay: Cytotoxicity against Homo sapiens (human) OVCAR3 cells after 48 hr by SRB assay; settings: OVCAR-3, 48 h
# [14] = test system: HOP-92; assay: Cytotoxicity against Homo sapiens (human) HOP92 cells after 48 hr by SRB assay; settings: HOP-92, 48 h
# [15] = test system: OVCAR-4; assay: Cytotoxicity against Homo sapiens (human) OVCAR4 cells after 48 hr by SRB assay; settings: OVCAR-4, 48 h
# [16] = test system: HOP-62; assay: Cytotoxicity against Homo sapiens (human) HOP62 cells after 48 hr by SRB assay; settings: HOP-62, 48 h
# [17] = test system: RPMI-8226; assay: Cytotoxicity against Homo sapiens (human) RPMI8226 cells after 48 hr by SRB assay; settings: Homo sapiens, RPMI-8226, 48 h
# [18] = test system: HCC 2998; assay: Cytotoxicity against Homo sapiens (human) HCC2998 cells after 48 hr by SRB assay; settings: HCC 2998, 48 h
# [19] = test system: CCRF-CEM; assay: Cytotoxicity against Homo sapiens (human) CCRF-CEM cells after 48 hr by SRB assay
# [20] = test system: HL-60(TB); assay: Cytotoxicity against Homo sapiens (human) HL-60(TB) cells after 48 hr by SRB assay; settings: HL-60, 48 h
# [21] = test system: SF-268; assay: Cytotoxicity against Homo sapiens (human) SF268 cells after 48 hr by SRB assay; settings: SF-268, 48 h
# [22] = test system: T47D; assay: Cytotoxicity against Homo sapiens (human) T47D cells after 48 hr by SRB assay
# [23] = test system: UACC-62; assay: Cytotoxicity against Homo sapiens (human) UACC62 cells after 48 hr by SRB assay; settings: UACC-62, 48 h
# [24] = test system: A498; assay: Cytotoxicity against Homo sapiens (human) A498 cells after 48 hr by SRB assay; settings: A498, 48 h
# [25] = test system: BT-549; assay: Cytotoxicity against Homo sapiens (human) BT549 cells after 48 hr by SRB assay; settings: BT-549, 48 h
# [26] = test system: EKVX; assay: Cytotoxicity against Homo sapiens (human) EKVX cells after 48 hr by SRB assay
# [27] = test system: IGROV-1; assay: Cytotoxicity against Homo sapiens (human) IGROV1 cells after 48 hr by SRB assay; settings: IGROV-1, 48 h
# [28] = test system: CAKI-1; assay: Growth inhibition of Homo sapiens (human) CAKI-1 cells at 10 uM after 48 hr by SRB assay; settings: CAKI-1, 48 h, read-out: GI
# [29] = test system: SR; assay: Growth inhibition of Homo sapiens (human) SR cells at 10 uM after 48 hr by SRB assay; settings: read-out: GI
# [30] = test system: PC-3; assay: Growth inhibition of Homo sapiens (human) PC3 cells at 10 uM after 48 hr by SRB assay; settings: PC-3, 48 h, read-out: GI
# [31] = test system: MDA-MB-468; assay: Growth inhibition of Homo sapiens (human) MDA-MB-468 cells at 10 uM after 48 hr by SRB assay; settings: MDA-MB-468, 48 h, read-out: GI
# [32] = test system: BT-549; assay: Growth inhibition of Homo sapiens (human) BT549 cells at 10 uM after 48 hr by SRB assay; settings: BT-549, 48 h, read-out: GI
# [33] = test system: A498; assay: Growth inhibition of Homo sapiens (human) A498 cells at 10 uM after 48 hr by SRB assay; settings: A498, 48 h, read-out: GI
# [34] = test system: UO-31; assay: Growth inhibition of Homo sapiens (human) UO31 cells at 10 uM after 48 hr by SRB assay; settings: UO-31, 48 h, read-out: GI
# [35] = test system: OVCAR-5; assay: Growth inhibition of Homo sapiens (human) OVCAR5 cells at 10 uM after 48 hr by SRB assay; settings: OVCAR-5, 48 h, read-out: GI
structure (smiles),measurement,setting,value
COc1ccc(-c2cc(-c3cccs3)n(S(=O)(=O)c3ccccc3)c(=O)c2C#N)cc1,inhibition of growth at 10 µM,[1],28.1%
same,inhibition of growth at 10 µM,[2],22%
same,inhibition of growth at 10 µM,[3],55%
same,inhibition of growth at 10 µM,[4],56.2%
same,inhibition of growth at 10 µM,[5],21.3%
same,inhibition of growth at 10 µM,[6],27.7%
same,inhibition of growth at 10 µM,[7],20%
COc1ccc(-c2cc(-c3cccs3)[nH]c(=O)c2C#N)cc1,GI50,[8],> 100 µM
same,GI50,[9],> 100 µM
same,GI50,[10],39.8 µM
same,GI50,[11],60.2 µM
same,GI50,[12],> 100 µM
same,GI50,[13],> 100 µM
same,GI50,[14],> 100 µM
same,GI50,[15],69.2 µM
same,GI50,[16],> 100 µM
same,GI50,[17],22.4 µM
same,GI50,[18],> 100 µM
same,GI50,[19],23.4 µM
same,GI50,[20],45.7 µM
same,GI50,[21],> 100 µM
same,GI50,[22],> 100 µM
same,GI50,[23],> 100 µM
same,GI50,[24],> 100 µM
same,GI50,[25],> 100 µM
same,GI50,[26],> 100 µM
same,GI50,[27],> 100 µM
COc1ccc(-c2cc(-c3cccn3C)c(C#N)c(=O)n2Cc2ccccc2)cc1OC,inhibition of growth at 10 µM,[2],64.1%
COc1ccc(-c2cc(-c3cccn3C)c(C#N)c(=O)n2C(C)=O)cc1OC,inhibition of growth at 10 µM,[6],25.3%
COc1ccc(-c2cc(-c3cccn3C)c(C#N)c(=O)n2C(=S)Nc2ccc(F)cc2)cc1OC,inhibition of growth at 10 µM,[28],31.1%
same,inhibition of growth at 10 µM,[6],26.9%
same,inhibition of growth at 10 µM,[29],27.8%
COc1ccc(-c2cc(-c3cccn3C)c(C#N)c(=O)[nH]2)cc1OC,GI50,[8],85.1 µM
same,GI50,[9],> 100 µM
same,GI50,[10],23.9 µM
same,GI50,[11],0.48 µM
same,GI50,[12],67.6 µM
same,GI50,[13],> 100 µM
same,GI50,[14],> 100 µM
same,GI50,[15],> 100 µM
same,GI50,[16],30.9 µM
same,GI50,[17],22.9 µM
same,GI50,[18],89.1 µM
same,GI50,[19],5.01 µM
same,GI50,[20],> 100 µM
same,GI50,[21],> 100 µM
same,GI50,[22],34.7 µM
same,GI50,[23],66.1 µM
same,GI50,[24],56.2 µM
same,GI50,[25],> 100 µM
same,GI50,[26],0.05 µM
same,TGI,[26],9.77 µM
same,GI50,[27],91.2 µM
CCn1c(-c2ccc(Br)cc2)cc(-c2cccn2C)c(C#N)c1=O,inhibition of growth at 10 µM,[30],28%
same,inhibition of growth at 10 µM,[2],35%
same,inhibition of growth at 10 µM,[4],62.5%
same,inhibition of growth at 10 µM,[5],28.3%
same,inhibition of growth at 10 µM,[31],30%
COc1ccc(-c2cc(-c3cccs3)n(C(C)=O)c(=O)c2C#N)cc1,inhibition of growth at 10 µM,[5],29.6%
same,inhibition of growth at 10 µM,[29],30.5%
Cn1cccc1-c1cc(-c2ccc(Br)cc2)[nH]c(=O)c1C#N,GI50,[8],69.2 µM
same,GI50,[9],83.2 µM
same,GI50,[10],25.7 µM
same,GI50,[11],> 100 µM
same,GI50,[12],89.1 µM
same,GI50,[13],85.1 µM
same,GI50,[14],> 100 µM
same,GI50,[15],> 100 µM
same,GI50,[16],34.7 µM
same,GI50,[17],57.5 µM
same,GI50,[18],> 100 µM
same,GI50,[19],47.3 µM
same,GI50,[20],> 100 µM
same,GI50,[21],> 100 µM
same,GI50,[22],> 100 µM
same,GI50,[23],48.9 µM
same,GI50,[24],54.9 µM
same,GI50,[25],85.1 µM
same,GI50,[26],27.5 µM
same,GI50,[27],77.6 µM
Cn1cccc1-c1cc(-c2ccc(Br)cc2)n(N=O)c(=O)c1C#N,inhibition of growth at 10 µM,[32],32.8%
same,inhibition of growth at 10 µM,[5],28.2%
same,inhibition of growth at 10 µM,[29],37.5%
same,inhibition of growth at 10 µM,[33],25.7%
Cn1cccc1-c1cc(-c2ccc(Br)cc2)n(C=O)c(=O)c1C#N,inhibition of growth at 10 µM,[34],29.7%
same,inhibition of growth at 10 µM,[35],26.9%
same,inhibition of growth at 10 µM,[5],24.2%
same,inhibition of growth at 10 µM,[6],54.8%
